Source: patent US7368578B2, “Five-membered heterocyclic compounds” (Takeda Pharmaceutical Company Limited, priority 2002, dated 2008)

SMILES	melting point [°C]
COc1cc(COc2nn(Cc3ccccc3)cc2C(C)O)ccc1OCc1nc(-c2ccco2)oc1C (centres unmarked) [Example 18, 1-{1-benzyl-3-[(4-{[2-(2-furyl)-5-methyl-1,3-oxazol-4-yl]methoxy}-3-methoxybenzyl)oxy]-1H-pyrazol-4-yl}-1-ethanol]	105 to 106
COc1cc(COc2nn(Cc3ccccc3)cc2C(C)=O)ccc1OCc1nc(-c2ccco2)oc1C [Example 19, 1-{1-benzyl-3-[(4-{[2-(2-furyl)-5-methyl-1,3-oxazol-4-yl]methoxy}-3-methoxybenzyl)oxy]-1H-pyrazol-4-yl}-1-ethanone]	144 to 145
CCOC(=O)c1cn(Cc2ccccc2)nc1OCc1ccc(OCc2nc(-c3ccccc3)oc2C)cc1 [Example 20, ethyl 1-benzyl-3-({4-[(5-methyl-2-phenyl-1,3-oxazol-4-yl)methoxy]benzyl}oxy)-1H-pyrazole-4-carboxylate]	99 to 100
Cc1oc(-c2ccccc2)nc1COc1ccc(COc2nn(Cc3ccccc3)cc2C=O)cc1 [Example 22, 1-benzyl-3-[{4-[(5-methyl-2-phenyl-1,3-oxazol-4-yl)methoxy]benzyl}oxy]-1H-pyrazole-4-carbaldehyde]	133 to 134
CCOC(=O)c1cn(Cc2ccccc2)nc1OCc1cccc(OCc2nc(-c3ccccc3)oc2C)c1 [Example 23, ethyl 1-benzyl-3-({3-[(5-methyl-2-phenyl-1,3-oxazol-4-yl)methoxy]benzyl}oxy)-1H-pyrazole-4-carboxylate]	95 to 96
Cc1oc(-c2ccccc2)nc1COc1cccc(COc2nn(Cc3ccccc3)cc2C=O)c1 [Example 25, 1-benzyl-3-({3-[(5-methyl-2-phenyl-1,3-oxazol-4-yl)methoxy]benzyl}oxy)-1H-pyrazole-4-carbaldehyde]	131 to 132
CCOC(=O)c1cn(Cc2ccccc2)nc1OCc1cccc(OCc2nc(-c3ccco3)oc2C)c1 [Example 26, ethyl 1-benzyl-3-[(3-{[2-(2-furyl)-5-methyl-1,3-oxazol-4-yl]methoxy}benzyl)oxy]-1H-pyrazole-4-carboxylate]	92 to 93
Cc1oc(-c2ccco2)nc1COc1cccc(COc2nn(Cc3ccccc3)cc2C=O)c1 [Example 28, 1-benzyl-3-[(3-{[2-(2-furyl)-5-methyl-1,3-oxazol-4-yl]methoxy}benzyl)oxy]-1H-pyrazole-4-carbaldehyde]	135 to 136
CCOC(=O)c1cn(Cc2ccccc2)nc1OCc1ccc(OCc2nc(-c3ccco3)oc2C)c(OCC)c1 [Example 29, ethyl 1-benzyl-3-[(3-ethoxy-4-{[2-(2-furyl)-5-methyl-1,3-oxazol-4-yl]methoxy}benzyl)oxy]-1H-pyrazole-4-carboxylate]	121 to 122
CCOc1cc(COc2nn(Cc3ccccc3)cc2C=O)ccc1OCc1nc(-c2ccco2)oc1C [Example 31, 1-benzyl-3-[(3-ethoxy-4-{[2-(2-furyl)-5-methyl-1,3-oxazol-4-yl]methoxy}benzyl)oxy]-1H-pyrazole-4-carbaldehyde]	144 to 145
CCOC(=O)c1cn(Cc2ccccc2)nc1OCc1ccc(OC)c(OCc2nc(-c3ccco3)oc2C)c1 [Example 32, ethyl 1-benzyl-3-[(3-{[2-(2-furyl)-5-methyl-1,3-oxazol-4-yl]methoxy}-4-methoxybenzyl)oxy]-1H-pyrazole-4-carboxylate]	147 to 148
COc1ccc(COc2nn(Cc3ccccc3)cc2C=O)cc1OCc1nc(-c2ccco2)oc1C [Example 34, 1-benzyl-3-[(3-{[2-(2-furyl)-5-methyl-1,3-oxazol-4-yl]methoxy}-4-methoxybenzyl)oxy]-1H-pyrazole-4-carbaldehyde]	142 to 143
CCOC(=O)c1cn(Cc2ccccc2)nc1OCc1ccc(OCc2nc(-c3ccco3)oc2C)c(Cl)c1 [Example 35, ethyl 1-benzyl-3-[(3-chloro-4-{[2-(2-furyl)-5-methyl-1,3-oxazol-4-yl]methoxy}benzyl)oxy]-1H-pyrazole-4-carboxylate]	153 to 154
Cc1oc(-c2ccco2)nc1COc1ccc(COc2nn(Cc3ccccc3)cc2C=O)cc1Cl [Example 37, 1-benzyl-3-[(3-chloro-4-{[2-(2-furyl)-5-methyl-1,3-oxazol-4-yl]methoxy}benzyl)oxy]-1H-pyrazole-4-carbaldehyde]	158 to 159
Cc1oc(-c2ccco2)nc1COc1ccc(COc2nn(Cc3ccccc3)cc2C(=O)O)cc1Cl [Example 38, 1-benzyl-3-[(3-chloro-4-{[2-(2-furyl)-5-methyl-1,3-oxazol-4-yl]methoxy}benzyl)oxy]-1H-pyrazole-4-carboxylic acid]	191 to 192
CCOC(=O)c1cn(Cc2ccccc2)nc1OCc1ccc(OCc2nc(-c3ccco3)oc2C)c(OCOC)c1 [Example 39, ethyl 1-benzyl-3-[(4-{[2-(2-furyl)-5-methyl-1,3-oxazol-4-yl]methoxy}-3-(methoxymethoxy)benzyl)oxy]-1H-pyrazole-4-carboxylate]	120 to 121

SMILES	melting point [°C]
CCOC(=O)c1cn(Cc2ccccc2)nc1OCc1ccc(OCc2nc(-c3ccco3)oc2C)nc1 [Example 40, ethyl 1-benzyl-3-[(6-{[2-(2-furyl)-5-methyl-1,3-oxazol-4-yl]methoxy}-3-pyridinyl)methoxy]-1H-pyrazole-4-carboxylate]	140 to 141
Cc1oc(-c2ccco2)nc1COc1ccc(COc2nn(Cc3ccccc3)cc2C(=O)O)cn1 [Example 43, 1-benzyl-3-[(6-{[2-(2-furyl)-5-methyl-1,3-oxazol-4-yl]methoxy}-3-pyridinyl)methoxy]-1H-pyrazole-4-carboxylic acid]	151 to 152
COCOc1cc(COc2nn(Cc3ccccc3)cc2C=O)ccc1OCc1nc(-c2ccco2)oc1C [Example 45, 1-benzyl-3-([4-{[2-(2-furyl)-5-methyl-1,3-oxazol-4-yl]methoxy}-3-(methoxymethoxy)benzyl]oxy)-1H-pyrazole-4-carbaldehyde]	141 to 142
CCOC(=O)c1cn(Cc2ccccc2)nc1OCc1ccc(OCc2nc(-c3ccco3)oc2C)c(O)c1 [Example 46, ethyl 1-benzyl-3-[(4-{[2-(2-furyl)-5-methyl-1,3-oxazol-4-yl]methoxy}-3-hydroxybenzyl)oxy]-1H-pyrazole-4-carboxylate]	134 to 135
CCOC(=O)c1cn(Cc2ccccc2)nc1OCc1ccc(OCc2nc(-c3ccco3)oc2C)c(OCc2ccccc2)c1 [Example 48, ethyl 1-benzyl-3-[(3-benzyloxy-4-{[2-(2-furyl)-5-methyl-1,3-oxazol-4-yl]methoxy}benzyl)oxy]-1H-pyrazole-4-carboxylate]	127 to 128
Cc1oc(-c2ccco2)nc1COc1ccc(COc2nn(Cc3ccccc3)cc2C=O)cc1OCc1ccccc1 [Example 50, 1-benzyl-3-[(3-benzyloxy-4-{[2-(2-furyl)-5-methyl-1,3-oxazol-4-yl]methoxy}benzyl)oxy]-1H-pyrazole-4-carbaldehyde]	130 to 131
Cc1oc(-c2ccco2)nc1COc1ccc(COc2nn(Cc3ccccc3)cc2C(=O)O)cc1OCc1ccccc1 [Example 51, 1-benzyl-3-[(3-benzyloxy-4-{[2-(2-furyl)-5-methyl-1,3-oxazol-4-yl]methoxy}benzyl)oxy]-1H-pyrazole-4-carboxylic acid]	184 to 185
CCOC(=O)c1cn(Cc2ccccc2)nc1OCc1ccc(OCc2nc(-c3ccco3)oc2C)cc1OC [Example 52, ethyl 1-benzyl-3-[(4-{[2-(2-furyl)-5-methyl-1,3-oxazol-4-yl]methoxy}-2-methoxybenzyl)oxy]-1H-pyrazole-4-carboxylate]	137 to 138
COc1cc(OCc2nc(-c3ccco3)oc2C)ccc1COc1nn(Cc2ccccc2)cc1C=O [Example 54, 1-benzyl-3-[(4-{[2-(2-furyl)-5-methyl-1,3-oxazol-4-yl]methoxy}-2-methoxybenzyl)oxy]-1H-pyrazole-4-carbaldehyde]	147 to 148
CCOC(=O)c1cn(Cc2ccccc2)nc1OCc1ccc(OCc2nc(-c3ccco3)oc2C)c(Br)c1 [Example 55, ethyl 1-benzyl-3-[(3-bromo-4-{[2-(2-furyl)-5-methyl-1,3-oxazol-4-yl]methoxy}benzyl)oxy]-1H-pyrazole-4-carboxylate]	158 to 159
CCOC(=O)c1cn(Cc2ccccc2)nc1OCc1ccc(OCc2nc(-c3ccco3)oc2C)c(-c2ccccc2)c1 [Example 56, ethyl 1-benzyl-3-[(4-{[2-(2-furyl)-5-methyl-1,3-oxazol-4-yl]methoxy}-3-phenylbenzyl)oxy]-1H-pyrazole-4-carboxylate]	134 to 135
Cc1oc(-c2ccco2)nc1COc1ccc(COc2nn(Cc3ccccc3)cc2C(=O)O)cc1-c1ccccc1 [Example 57, 1-benzyl-3-[(4-{[2-(2-furyl)-5-methyl-1,3-oxazol-4-yl]methoxy}-3-phenylbenzyl)oxy]-1H-pyrazole-4-carboxylic acid]	181 to 182
Cc1oc(-c2ccco2)nc1COc1ccc(COc2nn(Cc3ccccc3)cc2C=O)cc1-c1ccccc1 [Example 59, 1-benzyl-3-[(4-{[2-(2-furyl)-5-methyl-1,3-oxazol-4-yl]methoxy}-3-phenylbenzyl)oxy]-1H-pyrazole-4-carbaldehyde]	122 to 123
CCOC(=O)c1cn(Cc2ccccc2)nc1OCc1ccc(OCc2nc(-c3ccco3)oc2C)c(C)c1 [Example 60, ethyl 1-benzyl-3-[(4-{[2-(2-furyl)-5-methyl-1,3-oxazol-4-yl]methoxy}-3-methylbenzyl)oxy]-1H-pyrazole-4-carboxylate]	120 to 121
Cc1cc(COc2nn(Cc3ccccc3)cc2C(=O)O)ccc1OCc1nc(-c2ccco2)oc1C [Example 61, 1-benzyl-3-[(4-{[2-(2-furyl)-5-methyl-1,3-oxazol-4-yl]methoxy}-3-methylbenzyl)oxy]-1H-pyrazole-4-carboxylic acid]	176 to 177
Cc1cc(COc2nn(Cc3ccccc3)cc2C=O)ccc1OCc1nc(-c2ccco2)oc1C [Example 63, 1-benzyl-3-[(4-{[2-(2-furyl)-5-methyl-1,3-oxazol-4-yl]methoxy}-3-methylbenzyl)oxy]-1H-pyrazole-4-carbaldehyde]	121 to 122
